Data reported in patent US9034303B2, “Neuroprotective and neuro-restorative iron chelators and monoamine oxidase inhibitors and uses thereof” (priority 2010, dated 2015).
Entries after “also recorded” stand apart in the source; their conditions may differ.

Experiments:
[1] = prior publications; cited from earlier work
[2] = test system: 6-OHDA-induced lesions of nigrostrial dopamine neurons; conditions: prior publications; cited from earlier work
MAO-A = MAO-A (Mus musculus (Mouse), UniProt Q64133); assay type: in vivo, mice; conditions: mice, single i.p. injection, small intestine, one hour later
Method: (§1) For the MAO-inhibition study, mice (6 mice in each group) were injected intraperitoneally (i.p.) with compound 3 at the dosage of 5 or 10 mg/kg; or with M30 at the dosage of 10 mg/kg. Control mice received saline (0.1 mL) i.p. One hour later the mice were killed by cervical dislocation, while striatum and small intestine were removed rapidly and frozen in liquid nitrogen for further analysis. FIGS. 3 and 4 show MAO-A/MAO-B in vivo activity of compound 3 compared to the activity of M30. FIG. 3 presents an MAO inhibition in striatum, and FIG. 4 presents an MAO inhibition in intestine. The percent inhibition was computed based on comparison to control animals.

[3] = Stability in aqueous solution (PBS or saline) followed by HPLC; assay type: physicochemical; conditions: for Amount of compound remaining (%): 25° C., 0.5 mM
Method: (§2) Using high pressure liquid chromatography (HPLC), the stability of each of the tested compounds was determined by following its respective chemical character over time in either phosphate buffered saline (PBS) and/or 0.85% saline solution (sodium chloride). In each case, 0.5 mM of the tested compound in PBS or saline solution was incubated at 25° C. or at 37° C. for 20 hours or, in some cases, up to two days (48 hours).

[4] = Cytotoxicity experiments conducted in the past with M30, A549; assay type: cell-based; conditions: human, A549 cells, methods not identical, read-out: LC50 (μM) A549
From the text: (§3) Moreover, the outcomes of the cytotoxicity experiments compare very favorably with those conducted in the past with M30.

[5] = Cytotoxicity experiments conducted in the past with M30, HepG2; assay type: cell-based; conditions: human, HepG2 cells, methods not identical, read-out: LC50 (μM) HepG2
From the text: as §3

[6] = Follow-up stability experiment at 37° C. in PBS; assay type: physicochemical
Method: as §2
In addition, in a follow-up experiment the instability of M30, and the stability of compounds 3, 7 and 8 was also confirmed at 37° C. in PBS, Table 2, below.

SHSY-5Y = assay: Cytotoxicity experiments conducted in the past with M30, SHSY-5Y; assay type: cell-based, human; conditions: past experiments
From the text: as §3

[7] = as above; assay type: cell-based, human; conditions: human, SH-SY5Y cells; experiments conducted in the past, methods not identical; read-out: LC50 (μM) SHSY-5Y
From the text: as §3

MAO-B = MAO-B (Mus musculus (Mouse), UniProt Q8BW75); assay: In vivo MAO-B inhibition in mice after a single i.p. injection; conditions: small intestine, one hour later
Method: as §1

in vitro = conditions: human
Method: The cytotoxicity of compound 3 was assessed in vitro using two standard cell lines, HepG2, derived from a human hepatocellular carcinoma, and SH-SY5Y, derived from a human neuroblastoma, both in the presence and absence of excess iron.
HepG2 cells were maintained at ˜5% CO2, 37° C., and 95% relative humidity in minimal essential media (MEM) supplemented with 10% fetal bovine serum plus 0.1 mM non-essential amino acids, 2 mM L-glutamine, and penicillin/streptomycin. SH-SY5Y cells were maintained at ˜5% CO2, 37° C., and 95% relative humidity in a mixture of minimal essential media (MEM) and F12 K media (1:1, v:v) supplemented with 10% fetal bovine serum plus 0.1 mM non-essential amino acids, 2 mM L-glutamine, and penicillin/streptomycin. The cells were subcultured every two to three days and plated in tissue culture treated opaque white 96-well plates at a density of 1×10^4 cells/well and incubated at ˜5% CO2, 37° C., and 95% relative humidity overnight prior to initiation of the assay.
A series of DMSO stocks of the test article at 100× of the final concentration were diluted 1:100 with fresh culture media (final DMSO concentration was 1%). The media from the plated cells was removed and replaced with 100 μL of media containing test article or tamoxifen with final concentrations ranging between 0.01 to 1000 μM in triplicate. Wells containing no cells were used as background controls. Tamoxifen was used as a known positive control and DMSO alone was used as a vehicle control. The cells were incubated for four hours at ˜5% CO2, 37° C., and 95% relative humidity.
Cell viability was determined using a commercially available kit to determine ATP levels by luminescence. Briefly, the buffer and lyophilized substrate from the kit were equilibrated to room temperature. The buffer was used to reconstitute the substrate just prior to addition to the wells of the cell plate (100 μL per well). The plate was placed into the Tecan Infinite M200 plate reader, agitated for 10 minutes followed by a 10 minute wait period, then read using an integration time of 0.5 seconds with no attenuation.
The mean luminescence from the test article treated cells was compared to that treated by DMSO only.

MAO-B, sequence (Q8BW75 whole entry): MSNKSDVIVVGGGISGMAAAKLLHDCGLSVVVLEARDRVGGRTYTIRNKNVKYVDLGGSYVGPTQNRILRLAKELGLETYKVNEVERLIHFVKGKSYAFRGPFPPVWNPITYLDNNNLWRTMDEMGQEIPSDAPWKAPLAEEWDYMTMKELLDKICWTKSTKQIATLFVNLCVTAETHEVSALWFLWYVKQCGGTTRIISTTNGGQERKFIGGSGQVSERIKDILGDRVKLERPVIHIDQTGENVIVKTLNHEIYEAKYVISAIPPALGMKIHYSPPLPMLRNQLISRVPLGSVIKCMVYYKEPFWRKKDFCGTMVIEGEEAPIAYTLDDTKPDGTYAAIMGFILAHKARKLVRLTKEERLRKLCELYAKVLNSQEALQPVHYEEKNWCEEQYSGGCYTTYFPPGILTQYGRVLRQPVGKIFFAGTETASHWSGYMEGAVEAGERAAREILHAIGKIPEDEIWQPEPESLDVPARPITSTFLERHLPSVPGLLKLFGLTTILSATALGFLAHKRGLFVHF
MAO-A, sequence (Q64133 whole entry): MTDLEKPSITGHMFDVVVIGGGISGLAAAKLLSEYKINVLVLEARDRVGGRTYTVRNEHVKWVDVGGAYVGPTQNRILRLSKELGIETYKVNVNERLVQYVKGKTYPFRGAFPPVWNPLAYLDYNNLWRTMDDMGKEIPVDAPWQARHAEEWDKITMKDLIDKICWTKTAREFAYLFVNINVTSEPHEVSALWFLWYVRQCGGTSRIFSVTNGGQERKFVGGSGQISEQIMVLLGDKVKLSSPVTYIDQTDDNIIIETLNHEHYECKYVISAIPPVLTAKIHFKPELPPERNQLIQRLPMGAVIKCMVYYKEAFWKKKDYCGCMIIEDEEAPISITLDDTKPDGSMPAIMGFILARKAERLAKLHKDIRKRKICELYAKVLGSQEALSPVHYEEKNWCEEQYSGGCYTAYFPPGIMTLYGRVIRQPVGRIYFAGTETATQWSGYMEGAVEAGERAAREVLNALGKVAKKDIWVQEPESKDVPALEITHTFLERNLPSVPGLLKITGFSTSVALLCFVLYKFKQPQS

OCCN1CCN(Cc2ccc(O)c3ncccc23)CC1 [5-[4-(2-hydroxyethyl)piperazin-1-ylmethyl]-8-hydroxyquinoline]
Crossing of the BBB [1]: able to cross the BBB
Activity against 6-OHDA in an animal model of Parkinson's disease [2]: active against 6-hydroxydopamine (6-OHDA)

C#CCN(C)Cc1ccc(O)c2ncccc12 [Compound M30, 5-[(methyl-2-propyn-1-ylamino)methyl]-8-quinolinol, reference compound]
MAO-A inhibition in intestine (MAO-A): Reduced inhibition in the intestinal tissue versus striatal tissue
Stability in aqueous solution (in words) ([3]; PBS and/or saline solution): unstable in aqueous solution; also recorded: degraded in both PBS and saline solution
Amount of compound remaining (%) ([3]; PBS, 0.5 hours): 76%
Amount of compound remaining (%) ([3]; PBS, 2 hours): 57%
Amount of compound remaining (%) ([3]; PBS, 20 hours): 28%
Amount of compound remaining (%) ([3]; PBS, 48 hours): 15%
Amount of compound remaining (%) ([3]; saline, 0.5 hours): 98%
Amount of compound remaining (%) ([3]; saline, 2 hours): 85%
Amount of compound remaining (%) ([3]; saline, 20 hours): 22%
CC50 [4]: > 1000 µM
CC50 [5]: 842 µM
Stability at 37° C. in PBS (in words) [6]: instability
Amount of compound remaining (%) ([6]; 0.5 hours): 50.8%
Amount of compound remaining (%) ([6]; 1 hour): 54.9%
Amount of compound remaining (%) ([6]; 2 hours): 45.1%
Amount of compound remaining (%) ([6]; 4 hours): 24.3%
Amount of compound remaining (%) ([6]; 8 hours): 14.4%
Amount of compound remaining (%) ([6]; 24 hours): 4.26%
SHSY-5Y cell death (%) (SHSY-5Y; with iron, M30 1 μM): 0.69%
SHSY-5Y cell death (%) (SHSY-5Y; with iron, M30 10 μM): 78.6%
SHSY-5Y cell death (%) (SHSY-5Y; with iron, M30 100 μM): 38.5%
SHSY-5Y cell death (%) (SHSY-5Y; without iron, M30 1 μM): −2. %
SHSY-5Y cell death (%) (SHSY-5Y; without iron, M30 10 μM): 1.0%
SHSY-5Y cell death (%) (SHSY-5Y; without iron, M30 100 μM): 19. %
CC50 [7]: > 1000 µM
Crossing of the BBB [1]: able to cross the BBB
MAO-B inhibition in intestine (MAO-B): Reduced inhibition in the intestinal tissue versus striatal tissue
Activity against 6-OHDA in an animal model of Parkinson's disease [2]: active against 6-hydroxydopamine (6-OHDA)

CC(=O)N(O)CCCCCNC(=O)CCC(=O)N(O)CCCCCNC(=O)CCC(=O)N(O)CCCCCN [Desferal]
Crossing of the BBB [1]: does not cross the BBB
Activity against 6-OHDA in an animal model of Parkinson's disease [2]: protected the rats against 6-OHDA-induced lesions

CC/C(=C(\c1ccccc1)c1ccc(OCCN(C)C)cc1)c1ccccc1 [tamoxifen, reference compound]
CC50 at 4 h (in vitro): ~50 µM
CC50 at 4 h (in vitro; LC50 (μM) SHSY-5Y): ~50 µM
